Measured values: patent US20240284792A1, “ORGANIC COMPOUND, LIGHT-EMITTING DEVICE, DISPLAY APPARATUS, AND ELECTRONIC DEVICE” (SEMICONDUCTOR ENERGY LABORATORY CO., LTD., priority 2023, published 2024)
In brackets after ≈: the same amount, converted by molar mass.

Test: Solubility test (water solubility) by LC-MS analysis
Assay type: physicochemical
Procedure: In the LC-MS analysis, liquid chromatography (LC) separation was carried out with ACQUITY UPLC manufactured by Waters Corporation, and MS analysis (mass spectrometry) was carried out with Xevo G2 Tof MS manufactured by Waters Corporation. Acquity UPLC BEH C8 (2.1×100 mm, 1.7 μm) was used as a column for the LC separation. Acetonitrile was used for Mobile Phase A and a 0.1% aqueous solution of formic acid was used for Mobile Phase B. The injection amount of the sample was 5.0 μL. Note that in the analysis, the wavelength of a photodiode array detector was set to 330 nm±1 nm.
In a 5-mL sample bottle, 1 mg of SFPy-hpp was put and 2 mL of N,N-dimethylformamide was added thereto. This mixture was irradiated with ultrasonic waves for five minutes. After it was confirmed that the solid was completely dissolved, this solution was diluted by 2.5 times with acetonitrile, whereby the concentration of the solution was adjusted to 200 mg/L. This solution was diluted with acetonitrile, whereby a solution with a concentration of 4 mg/L, a solution with a concentration of 2 mg/L, and a solution with a concentration of 0.2 mg/L were prepared. The prepared solutions were subjected to LC-MS analysis, and the peak area values derived from SFPy-hpp, which were obtained at the respective solution concentrations, were used to form calibration curves.
Next, the water solubility of SFPy-hpp was measured.
In a 5-mL sample bottle, 1 mg of SFPy-hpp was put and 1 mL of water was added thereto. This mixture was irradiated with ultrasonic waves for five minutes. This mixture was filtered through a membrane filter to remove the solid. The obtained solution was subjected to LC-MS analysis.

c1cc(-c2ccc3c(c2)C2(c4ccccc4-c4ccccc42)c2ccccc2-3)nc(N2CCCN3CCCN=C32)c1 [SFPy-hpp, 1-[6-(9,9′-spirobi[9H-fluoren]-2-yl)pyridin-2-yl]-1,3,4,6,7,8-hexahydro-2H-pyrimido[1,2-a]pyrimidine]
solubility in 1 mL of water (1 mg compound in 1 mL water, ultrasonic waves five minutes, membrane filtered, LC-MS with calibration curve): 0.00029 mg
solubility at 5 min (thermodynamic from solid, water, from calibration curve and LC-MS signal intensity, read-out: weight fraction of the water solubility): 0.29 µg/mL (≈ 0.546 µM)
water solubility (in words) (water, conclusion from LC-MS solubility test): extremely low water solubility
